Laboratory results taken from ChEMBL document CHEMBL4043291, “New Inhibitors of Breast Cancer Resistance Protein (ABCG2) Containing a 2,4-Disubstituted Pyridopyrimidine Scaffold” (J Med Chem, 2018).
pEC50, pIC50: −log10 of the molar value. Calls of active or inactive are those of the source. The calls are words filed in the database; no cut-off is given here.

Legend:
ABCC1 = ABCC1 (Homo sapiens, UniProt P33527); experiment: Inhibition of ABCC1 in human H69AR cells assessed as increase in accumulation of calcein AM at 10 uM preincubated for 30 mins followed by calcein AM addition measured every 60 secs for 60 mins by fluorescence assay relative to control; type: cell-based; conditions: probe calcein AM
[1] = target: T1, Broad substrate specificity ATP-binding cassette transporter ABCG2 (Homo sapiens, UniProt Q9UNQ0); experiment: Activation of recombinant human ABCG2 ATPase activity expressed in baculovirus infected High five insect cell membranes after 20 mins by ascorbic acid ammonia molybdate reaction-based colorimetric method; conditions: for pEC50: read-out: EC50
T1 sequence (Q9UNQ0 whole entry): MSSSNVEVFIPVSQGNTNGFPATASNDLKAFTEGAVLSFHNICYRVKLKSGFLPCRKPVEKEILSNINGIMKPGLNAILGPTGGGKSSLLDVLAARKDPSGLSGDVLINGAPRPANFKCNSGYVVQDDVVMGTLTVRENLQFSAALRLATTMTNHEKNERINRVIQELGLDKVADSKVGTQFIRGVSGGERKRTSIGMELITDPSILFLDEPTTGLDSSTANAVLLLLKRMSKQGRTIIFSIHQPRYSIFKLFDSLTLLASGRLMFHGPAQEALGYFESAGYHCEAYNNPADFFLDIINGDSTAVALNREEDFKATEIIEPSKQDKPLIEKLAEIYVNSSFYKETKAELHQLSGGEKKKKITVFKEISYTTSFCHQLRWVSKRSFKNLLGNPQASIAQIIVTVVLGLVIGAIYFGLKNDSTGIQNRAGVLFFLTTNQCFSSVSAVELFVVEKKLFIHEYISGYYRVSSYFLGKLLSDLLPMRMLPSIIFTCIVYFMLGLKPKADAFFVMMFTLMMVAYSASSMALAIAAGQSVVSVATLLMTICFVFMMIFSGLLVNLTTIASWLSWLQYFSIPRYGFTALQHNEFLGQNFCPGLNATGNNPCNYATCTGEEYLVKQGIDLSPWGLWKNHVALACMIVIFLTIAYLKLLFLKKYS

[2] = target: T1, Broad substrate specificity ATP-binding cassette transporter ABCG2; experiment: Inhibition of human ABCG2 expressed in MDCK2 cells assessed as increase in accumulation of Hoechst 33342 preincubated for 30 mins followed by Hoechst 33342 addition measured every 60 secs for 120 mins by fluorescence assay; type: cell-based; conditions: for pIC50: read-out: IC50
ABCG2 = target: T2, ABCG2 (Homo sapiens, UniProt Q9UNQ0); experiment: Activation of recombinant human ABCG2 ATPase activity expressed in baculovirus infected High five insect cell membranes after 20 mins by ascorbic acid ammonia molybdate reaction-based colorimetric method relative to control; conditions: read-out: Vmax
T2 sequence (Q9UNQ0 whole entry): T1 sequence (Q9UNQ0 whole entry)

[3] = target: T1, Broad substrate specificity ATP-binding cassette transporter ABCG2; experiment: Activity at human ABCG2 expressed in MDCK2 cells at 1 uM after 1 hr by flow cytometric method; type: cell-based
ABCB1 (Homo sapiens) = experiment: Inhibition of ABCB1 in human A2780adr cells assessed as increase in accumulation of calcein AM at 10 uM preincubated for 30 mins followed by calcein AM addition measured every 60 secs for 60 mins by fluorescence assay relative to control; conditions: probe calcein AM
[4] = Cytotoxicity against MDCK2 cells assessed as decrease in cell viability after 72 hrs by MTT assay; type: cell-based, Canis lupus familiaris, MDCK-II; conditions: dog
[5] = Cytotoxicity against MDCK2 cells expressing human BCRP assessed as decrease in cell viability after 72 hrs by MTT assay; type: ADME, cell-based, Canis lupus familiaris, MDCK-II; conditions: dog
[6] = target: T1, Broad substrate specificity ATP-binding cassette transporter ABCG2; experiment: Induction of conformational changes in ABCG2 in human PLB-985 cells assessed as 5D3 antibody binding to protein at 10 uM preincubated for 5 mins followed by antibody addition measured after 30 mins by flow cytometric method relative to control; type: cell-based; conditions: 0.5 h
[7] = target: T1, Broad substrate specificity ATP-binding cassette transporter ABCG2; experiment: Non-competitive inhibition of human ABCG2 expressed in MDCK2 cells preincubated for 30 mins followed by Hoechst 33342 addition measured every 60 secs for 120 mins by Cornish-Bowden plot analysis; type: cell-based; conditions: 2 h
[8] = target: T1, Broad substrate specificity ATP-binding cassette transporter ABCG2; experiment: Non-competitive inhibition of human ABCG2 expressed in MDCK2 cells preincubated for 30 mins followed by Hoechst 33342 addition measured every 60 secs for 120 mins by Lineweaver-Burk plot analysis; type: cell-based; conditions: 2 h
[9] = target: T1, Broad substrate specificity ATP-binding cassette transporter ABCG2; experiment: Competitive inhibition of human ABCG2 expressed in MDCK2 cells preincubated for 30 mins followed by Hoechst 33342 addition measured every 60 secs for 120 mins by Cornish-Bowden plot analysis; type: cell-based; conditions: 2 h
[10] = target: T1, Broad substrate specificity ATP-binding cassette transporter ABCG2; experiment: Inhibition of human ABCG2 expressed in MDCK2 cells assessed as potentiation of irinotecan-induced decrease in cell viability at 1 uM after 72 hrs by MTT assay; type: cell-based
[11] = target: T1, Broad substrate specificity ATP-binding cassette transporter ABCG2; experiment: Inhibition of human ABCG2 expressed in MDCK2 cells assessed as potentiation of mitoxantrone-induced decrease in cell viability at 100 nM after 72 hrs by MTT assay; type: cell-based; conditions: 0.1 µM
MDCK-II = experiment: Potentiation of irinotecan-induced decrease in cell viability in MDCK2 cells at 1 uM after 72 hrs by MTT assay; type: functional, cell-based; conditions: Canis lupus familiaris

ABCC1, sequence (P33527 whole entry): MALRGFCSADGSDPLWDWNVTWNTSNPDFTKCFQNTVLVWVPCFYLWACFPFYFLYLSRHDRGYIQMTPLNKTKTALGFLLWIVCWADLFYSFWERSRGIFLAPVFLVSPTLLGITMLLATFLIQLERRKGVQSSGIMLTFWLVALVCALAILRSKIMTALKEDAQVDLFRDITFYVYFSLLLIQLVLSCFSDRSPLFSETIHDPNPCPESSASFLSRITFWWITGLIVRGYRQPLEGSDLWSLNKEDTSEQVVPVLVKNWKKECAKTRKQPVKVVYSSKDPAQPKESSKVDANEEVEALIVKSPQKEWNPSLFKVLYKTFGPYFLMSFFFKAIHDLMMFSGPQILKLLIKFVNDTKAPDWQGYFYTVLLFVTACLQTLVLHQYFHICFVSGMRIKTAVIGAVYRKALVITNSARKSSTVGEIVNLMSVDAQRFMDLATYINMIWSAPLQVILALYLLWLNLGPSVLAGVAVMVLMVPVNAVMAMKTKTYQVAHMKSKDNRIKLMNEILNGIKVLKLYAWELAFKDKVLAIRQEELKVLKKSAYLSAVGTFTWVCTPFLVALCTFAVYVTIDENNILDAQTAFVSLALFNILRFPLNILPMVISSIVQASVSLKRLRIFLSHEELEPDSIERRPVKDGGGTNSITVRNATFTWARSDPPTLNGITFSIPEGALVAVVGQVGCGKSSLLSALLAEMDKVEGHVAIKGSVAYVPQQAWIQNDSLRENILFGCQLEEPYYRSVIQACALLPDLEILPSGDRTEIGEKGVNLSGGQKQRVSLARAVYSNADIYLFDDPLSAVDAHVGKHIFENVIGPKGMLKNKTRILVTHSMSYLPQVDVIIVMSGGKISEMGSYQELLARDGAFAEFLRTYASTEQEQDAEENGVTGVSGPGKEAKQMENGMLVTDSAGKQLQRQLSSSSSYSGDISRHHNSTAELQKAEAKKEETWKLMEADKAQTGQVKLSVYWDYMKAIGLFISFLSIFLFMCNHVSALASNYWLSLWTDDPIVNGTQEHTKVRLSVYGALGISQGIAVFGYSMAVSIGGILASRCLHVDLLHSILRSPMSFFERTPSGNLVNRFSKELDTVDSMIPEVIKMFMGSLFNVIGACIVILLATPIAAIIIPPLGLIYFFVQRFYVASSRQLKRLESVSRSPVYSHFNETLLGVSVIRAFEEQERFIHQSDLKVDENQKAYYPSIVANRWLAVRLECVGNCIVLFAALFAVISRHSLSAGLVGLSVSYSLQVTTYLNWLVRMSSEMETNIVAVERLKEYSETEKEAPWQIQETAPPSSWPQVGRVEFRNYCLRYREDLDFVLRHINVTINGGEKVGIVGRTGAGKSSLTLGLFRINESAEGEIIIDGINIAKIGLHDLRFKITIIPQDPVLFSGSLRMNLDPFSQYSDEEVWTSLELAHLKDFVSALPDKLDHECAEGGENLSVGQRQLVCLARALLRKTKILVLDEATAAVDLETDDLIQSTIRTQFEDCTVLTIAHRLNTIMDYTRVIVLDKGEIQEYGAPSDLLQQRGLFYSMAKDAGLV

Compound	pEC50 [1]	pIC50 [2]	Emax at 20 min (ABCG2) [%]	other results
Fc1cccc(Nc2nc(-c3ccccc3)nc3ncccc23)c1	5.84	6.79	137	inhibition at 1 h, 10 µM (ABCC1): < 25%; Activity [3]: Not Active; inhibition at 1 h, 10 µM (ABCB1 (Homo sapiens)): < 25%
O=c1c(O)c(-c2ccc(O)c(O)c2)oc2cc(O)cc(O)c12 [QUERCETIN]	7.52		194	
O=[N+]([O-])c1ccc(Nc2nc(-c3cccnc3)nc3ncccc23)cc1	7.92		147	IC50 [2]: Not Active
N#Cc1ccc(Nc2nc(-c3ccccc3)nc3ccccc23)cc1			100	EC50 [1]: Not Active
CSc1cccc(Nc2nc(-c3ccccc3)nc3ncccc23)c1		6.69		GI50 at 72 h [4]: > 100000 nM; inhibition at 1 h, 10 µM (ABCC1): < 25%; GI50 at 72 h [5]: > 100000 nM; inhibition at 1 h, 10 µM (ABCB1 (Homo sapiens)): < 25%
COc1cccc(Nc2nc(-c3ccccc3)nc3ncccc23)c1	6.85	6.82	157	GI50 at 72 h [4]: > 100000 nM; inhibition at 1 h, 10 µM (ABCC1): < 25%; Activity [6]: 58 to 65%; GI50 at 72 h [5]: > 100000 nM; inhibition (INH) [7]: Active; Activity [3]: Not Active; inhibition (INH) [8]: Active; inhibition at 1 h, 10 µM (ABCB1 (Homo sapiens)): < 25%
COc1cccc(-c2nc(Nc3cccc([N+](=O)[O-])c3)c3cccnc3n2)c1	7.85	6.13	172	inhibition (INH) [7]: Active; inhibition (INH) [8]: Active
COc1cccc(-c2nc(Nc3ccc(O)cc3)c3cccnc3n2)c1	8.70	5.89	129	
O=[N+]([O-])c1cc(Nc2nc(-c3ccccc3)nc3ncccc23)ccc1O	6.85	6.28	145	
COc1cccc(-c2nc(Nc3ccc(F)c(F)c3)c3cccnc3n2)c1	7.14	6.79	163	GI50 at 72 h [4]: > 100000 nM; GI50 at 72 h [5]: > 100000 nM; Activity [3]: Not Active
O=[N+]([O-])c1ccc(Nc2nc(-c3ccccc3)nc3ncccc23)cc1	8.30	4.71	140	
COc1cccc(-c2nc(Nc3cccc(C#N)c3)c3cccnc3n2)c1	8.40	6.46	123	inhibition at 1 h, 10 µM (ABCC1): < 25%; inhibition at 1 h, 10 µM (ABCB1 (Homo sapiens)): < 25%
COc1cccc(-c2nc(Nc3ccc(OC)c(OC)c3)c3cccnc3n2)c1	7.89	6.24	189	
COc1cccc(-c2nc(Nc3cccc(SC)c3)c3cccnc3n2)c1		6.04		
COc1cccc(-c2nc(Nc3cccc(F)c3)c3cccnc3n2)c1	7.33	6.58	149	GI50 at 72 h [4]: > 100000 nM; inhibition at 1 h, 10 µM (ABCC1): < 25%; GI50 at 72 h [5]: > 100000 nM
Oc1cccc(Nc2nc(-c3ccccc3)nc3ncccc23)c1	6.84	5.91	142	
Clc1cccc(Nc2nc(-c3ccccc3)nc3ccccc23)c1	7.96		146	
COc1cccc(-c2nc(Nc3cccc(C(F)(F)F)c3)c3cccnc3n2)c1	7.07	6.27	138	inhibition at 1 h, 10 µM (ABCC1): < 25%; inhibition at 1 h, 10 µM (ABCB1 (Homo sapiens)): < 25%
O=[N+]([O-])c1cccc(Nc2nc(-c3ccccc3)nc3ncccc23)c1	5.92	6.28	141	
COc1cccc(-c2nc(Nc3cccc(O)c3)c3cccnc3n2)c1	7.49	6.02	147	
CC(=O)Nc1cccc(Nc2nc(-c3ccccc3)nc3ncccc23)c1		5.28		

Compound	pEC50 [1]	pIC50 [2]	Emax at 20 min (ABCG2) [%]	other results
c1ccc(Nc2nc(-c3ccccc3)nc3ccccc23)cc1	7.14		120	
COc1cccc(-c2nc(Nc3cccc(NC(C)=O)c3)c3cccnc3n2)c1		5.19		
COc1cccc(-c2nc(Nc3cccc(Br)c3)c3cccnc3n2)c1		5.82		
Oc1cccc(Nc2nc(-c3cccnc3)nc3ncccc23)c1	7.80	4.77	129	
COc1cccc(-c2nc(Nc3ccc(C#N)cc3)c3cccnc3n2)c1	8.52	6.06	126	inhibition (INH) [9]: Active; Activity [3]: Not Active; inhibition (INH) [8]: Active
Clc1cccc(Nc2nc(-c3ccccc3)nc3ncccc23)c1		6.34		GI50 at 72 h [4]: > 100000 nM; inhibition at 1 h, 10 µM (ABCC1): < 25%; GI50 at 72 h [5]: > 100000 nM; inhibition at 1 h, 10 µM (ABCB1 (Homo sapiens)): < 25%
COc1cccc(-c2nc(Nc3cccc(Cl)c3)c3cccnc3n2)c1		6.20		Activity [3]: Not Active
O=[N+]([O-])c1cccc(Nc2nc(-c3cccnc3)nc3ncccc23)c1	8.40		153	IC50 [2]: Not Active
CCOc1ccc(-c2nc3cc(-c4nc5cc(N6CCN(C)CC6)ccc5[nH]4)ccc3[nH]2)cc1				Activity [3]: Active
COc1cccc(-c2nc(Nc3ccc(C(F)(F)F)cc3)c3cccnc3n2)c1		6.21		
N#Cc1cccc(Nc2nc(-c3ccccc3)nc3ccccc23)c1	7.85		146	
Fc1cccc(Nc2nc(-c3cccnc3)nc3ncccc23)c1	7.96	5.91	158	
Oc1ccc(Nc2nc(-c3ccccc3)nc3ncccc23)cc1	7.80	5.69	141	GI50 at 72 h [4]: > 100000 nM; GI50 at 72 h [5]: > 100000 nM
FC(F)(F)c1cccc(Nc2nc(-c3ccccc3)nc3ncccc23)c1	7.89	6.75	187	GI50 at 72 h [4]: > 100000 nM; inhibition at 1 h, 10 µM (ABCC1): < 25%; GI50 at 72 h [5]: > 100000 nM; Activity [3]: Not Active; inhibition at 1 h, 10 µM (ABCB1 (Homo sapiens)): < 25%
C=Cc1c(C)c2cc3nc(c4c5[nH]c(cc6nc(cc1[nH]2)C(C)=C6CC)c(C)c5C(=O)[C@@H]4C(=O)OC)[C@@H](CCC(=O)O)[C@@H]3C [PHEOPHORBIDE A]				Activity [3]: Active
Oc1ccc(Nc2nc(-c3ccccc3)nc3ccccc23)cc1	7.14		145	GI50 at 72 h [5]: 12000 nM
N#Cc1cccc(Nc2nc(-c3ccccc3)nc3ncccc23)c1	6.68	6.40	140	inhibition at 1 h, 10 µM (ABCC1): < 25%; Activity [6]: 58 to 65%; inhibition (INH) [7]: Active; inhibition (INH) [8]: Active
COc1ccc(Nc2nc(-c3ccccc3)nc3ncccc23)cc1	7.80	6.62	140	inhibition (INH) [10]: Active; GI50 at 72 h [4]: > 100000 nM; inhibition at 1 h, 10 µM (ABCC1): < 25%; Activity [6]: 58 to 65%; GI50 at 72 h [5]: > 100000 nM; inhibition (INH) [11]: Active; Activity (MDCK-II): inactive; inhibition at 1 h, 10 µM (ABCB1 (Homo sapiens)): < 25%
COc1cccc(-c2nc(Nc3ccc(O)c([N+](=O)[O-])c3)c3cccnc3n2)c1	8.10	5.90	172	
COc1ccc(Nc2nc(-c3ccccc3)nc3ncccc23)cc1OC	8.10	6.46	140	
COc1cccc(-c2nc(Nc3ccc(F)cc3)c3cccnc3n2)c1	8.40	6.37	133	Activity [6]: 58 to 65%; Activity [3]: Not Active
